Measurements taken from patent publication US20200316159A1, “SUSTAINED RELEASE COMPOSITIONS OF KAPPA-OPIOID RECEPTOR AGONIST” (JT PHARMACEUTICALS, INC., priority 2016, published 2020).
Non-standard residues stand in square brackets, D forms with d. Residues, ends and D or L forms follow the SMILES beside them. *: point of attachment. NH(4-picolyl) = c1cc(CN*)ccn1; dNle = CCCC[C@@H](N)C(=O)O

Legend:
kappa opioid receptor = kappa opioid receptor (Homo sapiens, UniProt P41145); test: Opioid receptor activation assay, DiscoveRx PathHunter Beta-Arrestin, kappa; format: cell-based; conditions: PathHunter Beta-Arrestin; for EC50: 3-6 repeats, read-out: 95% confidence levels of EC50, activation of kappa receptors
Description: Opioid Receptor Activation Assay.
PathHunter™ Beta-Arrestin GPCR Functional Profiling and Screening cell lines that express the individual opioid receptors were obtained from DiscoveRx (Fremont, Calif.). These cells express the kappa (or mu or delta) opioid receptor fused to a proprietary β-galactosidase enzyme fragment and the […]-arrestin gene fused to an enzyme acceptor (the remaining fragment of β-galactosidase). Upon activation of the receptor, β-arrestin is recruited to the GPCR and the β-galactosidase is activated through enzyme complementation. Cells were grown using standard cell culture techniques and then plated at 30,000 cells/well in 90 μl in a 96 well white, clear bottom plate and incubated overnight. Dilutions were prepared in dilution buffer (HBBS, 20 mMHepes, 0.1% BSA) and 10 μl added per well. Plates were then incubated for 90 min at 37° C. in a water-saturated atmosphere. Plates were then allowed to come to room temp and DiscoveRx's proprietary developing agent added as recommended by the manufacturer. This agent contains a detergent, 6-O-β-galactopyranosyl-luciferen and luciferase. Plates were then incubated for 1 hr at room temperature before being read on a luminometer. Antagonist studies were performed in an identical manner except after the overnight incubation 10 μl media was removed and replaced with drug or naloxone at the indicated concentration. […] To calculate % maximal luminescence, background was subtracted from the experimental values and this was divided by maximal luminescence and multiplied by 100.
To confirm this, and to determine their relative activities, we assessed their efficiency using PathHunter™ Beta-Arrestin GPCR Functional Profiling and Screening cell lines from DiscoveRx (Fremont, Calif.) as described in the Materials and Methods section.

[1] = system: peripheral pain (acetic acid-induced writhing); test: Acetic acid-induced writhing model (Example 1); format: in vivo, rat (male Sprague-Dawley); conditions: oral gavage, screening dose 20 mg/kg, 20 min before i.p. 3% acetic acid; Student's t-test p<0.05
Protocol: Acetic Acid-Induced Writhing Model.
This protocol is a well-established model of peripheral pain. Following oral or i.v. administration of compound, rats are rested for 20 min before i.p. injection with 2 ml/kg of 3% acetic acid. Animals are then rested an additional 10 min before being placed in a 10×10 inch chamber. A video of the rats is then recorded for next 20 min. The video is subsequently blindly scored by an investigator who examines each rat every 20 sec for the entire 20 min (60 individual observations). At each observation rats are scored on whether they are writhing or not. Writhing is defined as a constriction of the abdominal area, often with extension of the hind legs. At the end of the experiment the percent of the time the animal was writhing was calculated. The dose-response curves and EC50 values were generated using GraphPad Prism®.
As an initial biological screen the potential for oral availability of the 18 peptides in our library were evaluated in a well-established model of peripheral pain, the acetic acid-induced writhing assay. Rats were administered the various compounds by oral gavage at a screening dose of 20 mg/kg 20 min before i.p. injection with 2 ml/kg of 3% acetic acid. 10 min later animals were assessed for writhing as indicated in the methods section. […] Thus, several of the Arg modifications can impart CR665 with the ability to cross the gut barrier. Compounds 3, 7, 9, 11 and 17 were selected for further analysis.

[2] = system: abuse liability (lever pressing for intravenous drug delivery); test: Self-administration model; format: in vivo, rat; conditions: cocaine 50 ug/50 ul bolus infusion, 7 days, after replacing JT09
Description: Self-Administration Model.
Addiction/dependence is a critical side effect of opioids and must be evaluated with any new member of this family. The most reliable test of abuse liability with the most translational relevance is a contingent drug self-administration model, in which rats are trained to press a lever for intravenous drug delivery. Sixteen standard self-administration chambers (30×20×20 cm, Med Associates) were housed inside sound-attenuating cubicles fitted with a fan for airflow and to mask noise. Each chamber contained two retractable levers, two stimulus lights, a speaker for tone delivery, and a house light to provide general illumination. In addition, each chamber was equipped with a balanced metal arm and spring leash attached to a swivel (Instech). Tygon® tubing extended through the leash and was connected to a 10 ml syringe mounted on an infusion pump located outside the sound-attenuating cubicle. Rats were anesthetized with i.p. injections of ketamine (66 mg/kg; Vedcolnc, St Joseph, Mo., USA), xylazine (1.3 mg/kg; Lloyd Laboratories, Shenandoah, Iowa, USA), and equithesin (0.5 ml/kg); sodium pentobarbital (4 mg/kg), chloral hydrate (17 mg/kg), and 21.3 mg/kg magnesium sulfate heptahydrate dissolved in 44% propylene glycol, 10% ethanol solution). Ketorolac (2.0 mg/kg, i.p. Sigma, St. Louis, Mo., USA) was given just prior to surgery as an analgesic. One end of a silastic catheter was inserted 33 mm into the external right jugular and secured with 4.0 silk sutures. The other end ran subcutaneously and exited from a small incision just below the scapula. This end is attached to an infusion harness (Instech Solomon, Plymouth Meeting, Pa., USA) that provides access to an external port for IV drug delivery. […]
During self-administration, rats received an IV infusion (0.1 ml) of 10 U/ml heparinized saline before each session. […] Cocaine was chosen for comparison purposes because it is readily self-administered.

[3] = system: central pain (acute thermal stimuli); test: Hotplate model (Example 1); format: in vivo, rat (male Sprague-Dawley); conditions: morphine at 5 mg/kg
Protocol: The hotplate model evaluates central pain attenuation in a rodent after applying an acute thermal stimuli. The rat is treated with compound and assessed over time on a hotplate analgesia meter (Columbus Instruments, Columbus, Ohio), essentially a flat surface maintained at 53.0+/−0.2° C. The time until the rat lifts, nibbles or shakes one of its hind paws is recorded, which is known as the response latency. Animals remain on the hotplate no longer than 30 sec to avoid tissue damage. Experiments are scored as the percent of maximal possible effect (% MPE) calculated using the following equation: % MPE=[(post-drug latency−pre-drug latency)/(cut-off pre-drug latency)]×100%. The dose response curves and EC50 values were generated using GraphPad Prism®.
As discussed, central availability of a kappa agonist can lead to undesirable side effects. To assess the peripheral to central selectivity of compound 9 an i.v. dose response of this drug was performed in both a model of peripheral pain (A. the writhing assay) and central pain (B. the hotplate assay). The ratio of EC50s for each of these assays can then be used to determine the peripheral selectivity of the drug.

[4] = system: central pain (acute thermal stimuli); test: Hot plate model (Example 2); format: in vivo, rat; conditions: JT compounds 20 mg/kg oral; morphine 10 mg/kg i.p.
Protocol: The hotplate model evaluates central pain attenuation in a rodent after applying an acute thermal stimuli. Experimental rats were orally gavaged with lead compounds JT07 or JT09 (20 mg/kg) and rested for 20 min prior to being placed on the hotplate. Control rats received i.p. injections of morphine (10 mg/kg) and rested for 20 min prior to be being placed on the hotplate. Rats were then assessed over time on a hotplate analgesia meter (Columbus Instruments, Columbus, Ohio), essentially a flat surface maintained at 53.0+/−0.2° C. The time until the rat lifted, nibbled, or shook one of its hind paws was recorded, which is known as the response latency. Animals remained on the hotplate no longer that 30 sec to avoid tissue damage. Experiments were scored as the percent of maximal possible effect (% MPE) calculated using the following equation: % MPE=[(post-drug latency−pre-drug latency)/(cut-off pre-drug latency)]×100%. The dose response curves and EC50 values were generated using GraphPad Prism.
As an initial screen for analgesic activity, JT07 and JT09 were evaluated in the hotplate analgesic model using a standard oral dose of 20 mg/kg. Percent maximum possible effect was analyzed for each compound and compared to morphine (10 mg/kg, i.p.).

[5] = system: sedation (distance traveled); test: Locomotor open field test; conditions: JT09 20 mg/kg p.o.; morphine 10 mg/kg i.p.
Protocol: Locomotor Open Field Test.
Sedation and a loss of muscle coordination are common CNS-mediated side effects of opioids. To assess the sedative effects of JT09, rats were given JT09 (20 mg/kg, p.o.) or morphine (10 mg/kg, i.p.) 20 min before placement in an automated (68 l×21 w×21 h cm) activity chambers for a 30 min test. Morphine was used as a comparison group due to its well-known sedative effects.

Chain of kappa opioid receptor (P41145 whole entry): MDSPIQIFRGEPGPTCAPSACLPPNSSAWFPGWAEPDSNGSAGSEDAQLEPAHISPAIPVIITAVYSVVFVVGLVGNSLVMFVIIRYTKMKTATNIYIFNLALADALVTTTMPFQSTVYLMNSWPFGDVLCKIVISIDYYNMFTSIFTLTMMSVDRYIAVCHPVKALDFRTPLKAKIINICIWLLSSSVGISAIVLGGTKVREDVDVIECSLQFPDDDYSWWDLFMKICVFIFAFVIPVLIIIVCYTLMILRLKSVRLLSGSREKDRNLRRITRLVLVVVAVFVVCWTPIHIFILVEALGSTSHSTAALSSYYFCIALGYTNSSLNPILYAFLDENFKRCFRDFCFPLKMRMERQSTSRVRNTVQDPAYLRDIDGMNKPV

| Compound | EC50, activation of kappa opioid receptor (kappa opioid receptor) | EC50 (kappa opioid receptor) | also measured |
| --- | --- | --- | --- |
| CCCC[C@@H](NC(=O)[C@@H](Cc1ccccc1)NC(=O)[C@H](N)Cc1ccccc1)C(=O)N[C@H](CCCNC(=N)N)C(=O)NCc1ccncc1 [CR665, D-Phe-D-Phe-D-Nle-D-Arg-NH-4-Picolyl, reference compound] (H-[dF][dF][dNle][dR]-{NH(4-picolyl)}) | low nM range | 9.07 to 13.1 nM | effect on writhing (outward physical signs of peripheral pain) versus saline control [1]: did not have a significant effect |
| CCCCNC(=N)NCCC[C@@H](NC(=O)[C@@H](CCCC)NC(=O)[C@@H](Cc1ccccc1)NC(=O)[C@H](N)Cc1ccccc1)C(=O)NCc1ccncc1 [Compound 3] | low nM range | 1.38 to 18.7 nM |  |
| CCCC[C@@H](NC(=O)[C@@H](Cc1ccccc1)NC(=O)[C@H](N)Cc1ccccc1)C(=O)N[C@H](CCCCNC1CCCCC1)C(=O)NCc1ccncc1 [Compound 7] | low nM range | 5.63 to 13.1 nM |  |
| CCCC[C@@H](NC(=O)[C@@H](Cc1ccccc1)NC(=O)[C@H](N)Cc1ccccc1)C(=O)N[C@H](CCCCNCc1ccccc1)C(=O)NCc1ccncc1 [Compound 11] | low nM range | 8.15 to 26.8 nM |  |
| CCCC[C@@H](NC(=O)[C@@H](Cc1ccccc1)NC(=O)[C@H](N)Cc1ccccc1)C(=O)N[C@H](CCC[N+](C)(C)C)C(=O)NCc1ccncc1 [Compound 17] | low nM range | 47.2 to 166 nM |  |
| COC(=O)[C@H]1[C@@H](OC(=O)c2ccccc2)C[C@@H]2CC[C@H]1N2C [cocaine, reference compound] |  |  | number of cocaine infusions (nose-poke) [2]: increased over the 7 days |
| CN1CC[C@]23c4c5ccc(O)c4O[C@H]2[C@@H](O)C=C[C@H]3[C@H]1C5 [morphine] |  |  | time of maximum response in hotplate assay [3]: 15 min; analgesic activity in hotplate model (% maximum possible effect) [4]: potent analgesic; sedation in locomotor test [5]: highly sedative |
